According to paper PMC5063506, “A Novel Class of Small Molecule Agonists with Preference for Human over Mouse TLR4 Activation” (PLoS ONE, 2016):

Legend:
human TLR4/MD2 = target: T1, human TLR4/MD2 (Homo sapiens, UniProt O00206+Q9Y6Y9); assay: hTLR4/MD2-HEK293 transfectant SEAP (QUANTI-Blue) dose response, AUC; assay type: cell-based; settings: 1 μg/ml to 4 ng/ml, 24 h, SEAP OD 650 nm vs log concentration
T1 construct: host or cells: HEK293
Experimental: Cells were seeded in tissue culture treated clear flat bottom polystyrene 96 well plates (Costar, 3598) at 1e4 cells/well. Concentration-response curves were generated by addition of test compounds and incubation for 20 h at 37°C in an atmosphere of 5% CO2. LPS (E. coli 0111:B4, Ultra-pure, Invivogen) or PHAD (Avanti Polar Lipids) was used as a positive control. The SEAP released was quantified using p nitrophenyl phosphate as a substrate, and the absorbance at 405 nm was measured at 30 second intervals over several minutes using a microplate reader. Some data are recorded as the pEC50, the negative log of the EC50 value. Other data generated from these reporter cell lines were converted to AUC (area under the curve) values by interpolation of fitted cubic spline curve between OD value and log concentration levels. The calculation is performed using MESS package in statistical software R (www.r-project.org/).
Fig 4 Ugi compounds preferentially activate TLR4-HEK transfectants expressing human MD2. A-B) HEK293 cells transfected with human TLR4/MD2 or mouse TLR4/MD2 (InVivogen) were stimulated with TLR4 agonists including MPL, PHAD, and Ugi compounds at 1 μg/ml to 4 ng/ml and with LPS at 25 ng/ml to 64 pg/ml for 24 h. SNs were analyzed for SEAP content by the QUANTI-Blue assay (InVivogen) and analysis at 650 nm by spectrophotometer. AUC (area under the curve) values were calculated as in Methods. No AUC value was calculated for LPS since it was utilized with a different dose range. C) HEK transfectants with cis- or trans-species expression of TLR4, MD2, and CD14 were stimulated with Ugi compounds in a dose response range of 9 μM to 1 nM or with LPS (boxes) at 75 ng/ml to 5 pg/ml for 48 h. Data was obtained as Vmax calculated over the initial linear portion of the kinetic absorbance measurements. The AUC (area under the curve) value for the dose response curve of Vmax vs log10 (molar units) was calculated for each compound using Trapezoidal rule. TEXT PRINTED IN THE PICTURE: (A) MPL: hTLR4-HEK AUC: 0.55 | (A) AZ617: hTLR4-HEK AUC: 5.90 | (A) AZ618: hTLR4-HEK AUC: 6.56 | (A) AZ839: hTLR4-HEK AUC: 6.00 | (A) AZ161: hTLR4-HEK AUC: 5.54 | (A) AZ902: hTLR4-HEK AUC: 7.04 | (A) GLA: hTLR4-HEK AUC: 3.75 | (B) MPL: mTLR4-HEK AUC: 13.27 | (B) AZ617: mTLR4-HEK AUC: 0.89 | (B) AZ618: mTLR4-HEK AUC: 1.03 | (B) AZ839: mTLR4-HEK AUC: 0.93 | (B) AZ161: mTLR4-HEK AUC: 0.99 | (B) AZ902: mTLR4-HEK AUC: 1.55 | (B) GLA: mTLR4-HEK AUC: 14.24

[1] = system: guinea pig TLR4, MD2, and CD14; assay: Guinea-pig TLR4 reporter agonist assay (HEK293 SEAP, DDAO phosphate); assay type: cell-based; settings: 10^-5 to 10^-10 M, 20 h, % of maximum 1 μM LPS signal
Excerpt: Fragments of guinea pig TLR4 were identified by searching the Ensembl genome browser database (http://www.ensembl.org/index.html) using the BLAST algorithm and discontiguous mega blast of the NCBI trace archives (http://www.ncbi.nlm.nih.gov/blast/tracemb.shtml) using the DNA sequence of human TLR4 Isotype A as the search string. Guinea pig CD14 was assembled in silico from fragments identified in the NCBI trace archives using human CD14 as the search string (76% similar/72% identical). Fragments corresponding to guinea pig MD2 were identified by searching the Ensembl genome browser database and NCBI trace archives with human MD2 as the search string (72% similar/68% identical). Sequence information was used to design primers for PCR amplification of full length coding sequences from guinea pig spleen cDNA. Sequences for guinea pig MD2 and CD14 were as predicted in silico. gpTLR4 was cloned into the expression vector pUNO (Invivogen). gpMD2 and gpCD14 were cloned together into pDUO (Invivogen) for co-expression. gpMD2 was also cloned into pUNO for transient co-expression with gpTLR4. A stable mixed population expressing gpTLR4 /CD14/MD2 was made by transfecting the gpTLR4/pUNO and gpMD2 + gpCD14/pDUO constructs into a HEK293 cell-line containing a stably integrated pNiFty2-SEAP reporter plasmid (Invivogen) using Fugene-6 (Roche). […]
SEAP detection assay was performed as previous described by. […] Plates were read using the Envision plate reader excitation λex 620nm, emission λem 665nm. Data was analyzed as % maximum 1 μM Ultrapure (0111:B4) LPS activation signal (Invivogen).
Fig 5 Ugi compounds activate guinea pig TLR4/MD2-HEK transfectants. […] The plates were developed with the addition of DDAO phosphate as substrate and then read on a plate reader at 620 nm. Data were analyzed as % of the maximum 1 μM Ultrapure (0111:B4) LPS activation signal.

T1 sequence (O00206 24-839): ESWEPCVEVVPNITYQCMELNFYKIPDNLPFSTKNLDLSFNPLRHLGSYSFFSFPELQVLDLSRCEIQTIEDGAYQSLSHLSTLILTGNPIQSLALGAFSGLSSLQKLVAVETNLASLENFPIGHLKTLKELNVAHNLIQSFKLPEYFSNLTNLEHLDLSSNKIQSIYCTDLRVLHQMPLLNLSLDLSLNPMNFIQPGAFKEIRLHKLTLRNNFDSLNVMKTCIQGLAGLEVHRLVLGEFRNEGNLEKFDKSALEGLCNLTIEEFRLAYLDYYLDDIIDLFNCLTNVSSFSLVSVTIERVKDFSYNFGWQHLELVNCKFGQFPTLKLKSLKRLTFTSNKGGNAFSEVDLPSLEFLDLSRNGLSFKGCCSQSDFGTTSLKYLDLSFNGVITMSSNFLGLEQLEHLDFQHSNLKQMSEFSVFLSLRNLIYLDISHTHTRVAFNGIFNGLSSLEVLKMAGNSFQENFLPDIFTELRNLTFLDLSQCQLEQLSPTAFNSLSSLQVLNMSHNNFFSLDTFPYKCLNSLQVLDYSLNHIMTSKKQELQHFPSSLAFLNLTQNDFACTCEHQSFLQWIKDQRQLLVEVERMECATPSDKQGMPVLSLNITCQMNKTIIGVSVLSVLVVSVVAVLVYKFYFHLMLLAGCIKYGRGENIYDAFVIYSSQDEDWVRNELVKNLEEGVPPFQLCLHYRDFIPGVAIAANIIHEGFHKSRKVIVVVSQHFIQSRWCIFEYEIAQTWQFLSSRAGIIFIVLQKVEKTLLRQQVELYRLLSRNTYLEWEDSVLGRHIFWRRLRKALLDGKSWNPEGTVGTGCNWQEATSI
T1 sequence (Q9Y6Y9 19-160): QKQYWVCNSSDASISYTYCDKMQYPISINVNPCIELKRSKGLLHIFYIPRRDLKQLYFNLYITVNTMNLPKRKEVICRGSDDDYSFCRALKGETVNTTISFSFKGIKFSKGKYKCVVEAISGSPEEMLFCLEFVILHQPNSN

Row | hTLR4-HEK AUC (human TLR4/MD2) | SMILES | potency on gpTLR4/gpMD2/gpCD14 HEK293 transfectants [1]
1 | 5.54 | Cc1ccc(N(C(=O)c2cc(-c3ccccc3)n(-c3ccccc3)n2)C(C(=O)NC2CCCC2)c2ccc(CC(=O)O)cc2)cc1Cl (stereo not shown) [AZ161] | potency comparable to LPS
2 | 5.90 | O=C(O)Cc1ccc(C(C(=O)NC2CCCC2)N(C(=O)c2cc(-c3ccccc3)n(-c3ccccc3)n2)c2ccc3c(c2)CCC3)cc1 (stereo not shown) [AZ617] | potency comparable to LPS
3 | 6.56 | Cc1cc(C)cc(N(C(=O)c2cc(-c3ccccc3)n(-c3ccccc3)n2)C(C(=O)NC2CCCC2)c2ccc(CC(=O)O)cc2)c1 (stereo not shown) [AZ618, 2-(4-(2-(cyclopentylamino)-1-(N-(3,5-dimethylphenyl)-1,5-diphenyl-1H-pyrazole-3-carboxamido)-2-oxoethyl)phenyl)acetic acid] | 
4 | 7.04 | CC(C)(C)c1ccc(N(C(=O)c2cc(-c3ccccc3)n(-c3ccccc3)n2)C(C(=O)NC2CCCC2)c2ccc(CC(=O)O)cc2)cc1 (stereo not shown) [AZ902] | less active but still positive
